Work on `CSc1ccc(C2=C(c3ccc(F)c(F)c3)C(=O)OC2)cc1C` [Example 3, 4-(3-Methyl-4-methylsulfanylphenyl)-3-(3,4-difluorophenyl)-2,5-dihydro-2-furanone] yielded a melting point of 150 to 153 °C.
Molecule `CSc1ccc(C2=C(c3ccccc3)C(=O)OC2)cc1C` [Example 5, 4-(3-Methyl-4-methylsulfanylphenyl)-3-phenyl-2,5-dihydro-2-furanone] has a melting point of 150 to 153 °C.
`CSc1ccc(C2=C(c3ccc(F)cc3)C(=O)OC2)cc1C` [Example 7, 4-(3-Methyl-4-methylsulfanylphenyl)-3-(4-fluorophenyl)-2,5-dihydro-2-furanone] gave a melting point of 126 to 130 °C.
With `CSc1ccc(C2=C(c3ccc(C)cc3)C(=O)OC2)cc1C` [Example 8, 4-(3-Methyl-4-methylsulfanylphenyl)-3-(4-methylphenyl)-2,5-dihydro-2-furanone] the melting point was 144 to 147 °C.
Molecule `CSc1ccc(C2=C(c3ccc(CC(C)C)cc3)C(=O)OC2)cc1C` [Example 11, 4-(3-Methyl-4-methylsulfanylphenyl)-3-(4-isobutylphenyl)-2,5-dihydro-2-furanone] has a melting point of 146 to 149 °C.
Work on `COc1ccc(C2=C(c3ccc(SC)c(C)c3)COC2=O)cc1` [Example 12, 4-(3-Methyl-4-methylsulfanylphenyl)-3-(4-methoxyphenyl)-2,5-dihydro-2-furanone] yielded a melting point of 147 to 150 °C.
In the case of `COc1cc(C2=C(c3ccccc3)C(=O)OC2)ccc1SC` [Example 14, 3-Phenyl-4-(3-methoxy-4-methylsulfanylphenyl)-2,5-dihydro-2-furanone], the melting point is reported as 142 to 144 °C.
`CSc1ccc(C2=C(c3ccc(C(F)(F)F)cc3)C(=O)OC2)cc1C` [Example 16, 4-(3-Methyl-4-methylsulfanylphenyl)-3-(4-trifluoromethylphenyl)-2,5-dihydro-2-furanone] showed a melting point of 140 to 143 °C.
Work on `CSc1ccc(C2=C(c3ccccc3)C(=O)OC2)c(F)c1` [Example 18, 4-(2-Fluoro-4-methylsulfanylphenyl)-3-phenyl-2,5-dihydro-2-furanone] yielded a melting point of 145 to 147 °C.
In the case of `CSc1ccc(C2=C(c3ccccc3)C(=O)OC2)cc1Cl` [Example 20, 4-(4-Methylsulfanyl-3-chlorophenyl)-3-phenyl-2,5-dihydro-2-furanone], the melting point is reported as 151 to 152 °C.
For `CSc1ccc(C2=C(c3ccc(SC)c(Cl)c3)COC2=O)cc1` [Example 21, 3-(4-Methylsulfanylphenyl)-4-(3-chloro-4-methylsulfanylphenyl)-2,5-dihydro-2-furanone], the melting point was 157 to 158 °C.
Work on `CSc1ccc(C2=C(c3ccc(F)c(F)c3)C(=O)OC2)cc1Cl` [Example 22, 4-(4-Methylsulfanyl-3-chlorophenyl)-3-(3,4-difluorophenyl)-2,5-dihydro-2-furanone] yielded a melting point of 151 to 152 °C.
Work on `CSc1ccc(C2=C(c3ccccc3)C(=O)OC2)cc1F` [Example 23, 4-(4-Methylsulfanyl-3-fluorophenyl)-3-phenyl-2,5-dihydro-2-furanone] yielded a melting point of 145 to 146 °C.
`CSc1ccc(C2=C(c3ccc(SC)c(F)c3)COC2=O)cc1` [Example 24, 4-(4-Methylsulfanyl-3-fluorophenyl)-3-(4-methylsulfanylphenyl)-2,5-dihydro-2-furanone] showed a melting point of 161 to 162 °C.
Work on `CSc1ccc(C2=C(c3ccc(C)cc3)C(=O)OC2)cc1Cl` [Example 26, 4-(4-Methylsulfanyl-3-chlorophenyl)-3-(4-methylphenyl)-2,5-dihydro-2-furanone] yielded a melting point of 147 to 149 °C.
For `CSc1ccc(C2=C(c3ccc(C)cc3)C(=O)OC2)cc1F` [Example 27, 4-(4-Methylsulfanyl-3-fluorophenyl)-3-(4-methylphenyl)-2,5-dihydro-2-furanone], the melting point was 159 to 160 °C.
Molecule `COOSc1ccc(C2=C(c3ccc(C)cc3)C(=O)OC2)cc1Cl` [Example 29] has a melting point of 164 to 166 °C.
`CSc1ccc(C2=C(c3ccc(CC(C)C)cc3)C(=O)OC2)c(F)c1` [Example 35, 4-(2-Fluoro-4-methylsulfanylphenyl)-3-(4-isobutylphenyl)-2,5-dihydro-2-furanone] gave a melting point of 92 to 94 °C.
`COc1ccc(C2=C(c3ccc(SC)c(F)c3)COC2=O)cc1` [Example 38, 4-(4-Methylsulfanyl-3-fluorophenyl)-3-(4-methoxyphenyl)-2,5-dihydro-2-furanone] showed a melting point of 122 to 124 °C.
For `CSc1ccc(C2=C(c3ccc(F)cc3)C(=O)OC2)c(F)c1` [Example 42, 4-(2-Fluoro-4-methylsulfanylphenyl)-3-(4-fluorophenyl)-2,5-dihydro-2-furanone], the melting point was 118 °C.
`CS(=O)(=O)c1ccc(C2=C(c3cccc4ccccc34)C(=O)OC2)c(F)c1` [Example 54, 4-(2-Fluoro-4-methylsulfonylphenyl)-3-(1-naphthyl)-2,5-dihydro-2-furanone] gave a melting point of 145 to 148 °C.
Work on `CC1(C)OC(=O)C(c2ccc(F)cc2)=C1c1ccc(S(C)(=O)=O)c(CN2CCOCC2)c1` [Example 67, 3-(4-Fluorophenyl)-5,5-dimethyl-4-(4-methylsulfonyl-3-morpholinomethylphenyl)-2,5-dihydro-2-furanone] yielded a melting point of 127 to 130 °C.
`CS(=O)(=O)c1ccc(C2=C(c3ccccc3)C(=O)N(c3ccc(F)cc3)C2=O)c(F)c1` [Example 98, 3-(2-Fluoro-4-methylsulfonylphenyl)-1-(4-fluorophenyl)-4-phenyl-2,5-dihydro-1H-2,5-azoledione] gave a melting point of 198 to 200 °C.
